Results published in patent US20170190671A1, “BIS(ARYL)CATECHOL DERIVATIVES AS HERBICIDES” (E I DU PONT DE NEMOURS AND COMPANY, priority 2014, published 2017).

Key:
Assay type in all cases: in vivo
[1] = test system: ducksalad (Heteranthera limosa); test: Test B flooded paddy; details: Heteranthera limosa, 336 h; 250 g ai/ha, Flood, 13 to 15 days, scale 0 (no effect) to 100 (complete control); read-out: Plant response rating, Ducksalad
From the text: (§1) At time of treatment, test pots were flooded to 3 cm above the soil surface, treated by application of test compounds directly to the paddy water, and then maintained at that water depth for the duration of the test. Treated plants and controls were maintained in a greenhouse for 13 to 15 days, after which time all species were compared to controls and visually evaluated. […] A dash (-) response means no test result.

[2] = test system: sedge, umbrella (small-flower umbrella sedge, Cyperus difformis); test: Test B flooded paddy; details: Cyperus difformis, 336 h; 250 g ai/ha, Flood, 13 to 15 days, scale 0 (no effect) to 100 (complete control); read-out: Plant response rating, Sedge, Umbrella
From the text: as §1

[3] = test system: barnyardgrass (Echinochloa crus-galli); test: Test B flooded paddy; details: Echinochloa crus-galli, 336 h; 250 g ai/ha, Flood, 13 to 15 days, scale 0 (no effect) to 100 (complete control); read-out: Plant response rating, Barnyardgrass
From the text: as §1

rice (Oryza sativa) [4] = test: Test B flooded paddy; details: Oryza sativa, 336 h; 250 g ai/ha, Flood, 13 to 15 days, scale 0 (no effect) to 100 (complete control); read-out: Plant response rating, Rice
From the text: as §1

[5] = test system: ducksalad (Heteranthera limosa); test: Test C flooded paddy; details: Flood, scale 0 to 100
From the text: as §1

[6] = test system: sedge, umbrella (small-flower umbrella sedge, Cyperus difformis); test: Test C flooded paddy; details: Flood, scale 0 to 100
From the text: as §1

[7] = test system: barnyardgrass (Echinochloa crus-galli); test: Test C flooded paddy; details: Flood, scale 0 to 100
From the text: as §1

rice (Oryza sativa) [8] = test: Test C flooded paddy; details: Flood, scale 0 to 100
From the text: as §1

[9] = test system: velvetleaf (Abutilon theophrasti); test: Test A preemergence; details: 0 to 100 scale
Method in brief: (§2)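 Visual injury scored 0–100 (100 = complete control) against untreated controls about 10 days after treatment in a greenhouse. Test chemicals, formulated with surfactant in non-phytotoxic solvent, were sprayed on soil preemergence or on 2-10 cm, one- to two-leaf plants postemergence.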

[10] = test system: giant foxtail (Setaria faberii); test: Test A preemergence; details: Setaria faberi, pre-emergence, 240 h, 0 to 100 scale, read-out: Plant response rating, Foxtail, Giant; for pest or weed control at 125 g/ha: 125 g ai/ha; for pest or weed control at 500 g/ha: 500 g ai/ha
Method in brief: as §2

[11] = test system: large (Lg) crabgrass (Digitaria sanguinalis); test: Test A preemergence; details: 0 to 100 scale
Method in brief: as §2

corn (Zea mays) [12] = test: Test A preemergence; details: 0 to 100 scale
Method in brief: as §2

[13] = test system: barnyardgrass (Echinochloa crus-galli); test: Test A preemergence; details: Echinochloa crus-galli, pre-emergence, 240 h, 0 to 100 scale, read-out: Plant response rating, Barnyardgrass; for pest or weed control at 125 g/ha: 125 g ai/ha; for pest or weed control at 500 g/ha: 500 g ai/ha
Method in brief: as §2

[14] = test system: morningglory (Ipomoea spp.); test: Test A preemergence; details: 0 to 100 scale
Method in brief: as §2

[15] = test system: pigweed (Amaranthus retroflexus); test: Test A preemergence; details: Amaranthus retroflexus, pre-emergence, 240 h, 0 to 100 scale, read-out: Plant response rating, Pigweed; for pest or weed control at 125 g/ha: 125 g ai/ha; for pest or weed control at 500 g/ha: 500 g ai/ha
Method in brief: as §2

[16] = test system: wheat (Triticum aestivum); test: Test A preemergence; details: 0 to 100 scale
Method in brief: as §2

[17] = test system: velvetleaf (Abutilon theophrasti); test: Test A postemergence; details: 0 to 100 scale
Method in brief: as §2

[18] = test system: giant foxtail (Setaria faberii); test: Test A postemergence; details: Setaria faberi, post-emergence, 240 h, 0 to 100 scale, read-out: Plant response rating, Foxtail, Giant; for pest or weed control at 125 g/ha: 125 g ai/ha; for pest or weed control at 500 g/ha: 500 g ai/ha
Method in brief: as §2

[19] = test system: large (Lg) crabgrass (Digitaria sanguinalis); test: Test A postemergence; details: 0 to 100 scale
Method in brief: as §2

corn (Zea mays) [20] = test: Test A postemergence; details: Zea mays, post-emergence, 240 h, 0 to 100 scale; for Corn plant response rating (crop injury, 0 = no effect, 100 = complete kill) at 125 g/ha: 125 g ai/ha; for Corn plant response rating (crop injury, 0 = no effect, 100 = complete kill) at 500 g/ha: 500 g ai/ha
Method in brief: as §2

[21] = test system: barnyardgrass (Echinochloa crus-galli); test: Test A postemergence; details: Echinochloa crus-galli, post-emergence, 240 h, 0 to 100 scale, read-out: Plant response rating, Barnyardgrass; for pest or weed control at 125 g/ha: 125 g ai/ha; for pest or weed control at 500 g/ha: 500 g ai/ha
Method in brief: as §2

[22] = test system: morningglory (Ipomoea spp.); test: Test A postemergence; details: 0 to 100 scale
Method in brief: as §2

[23] = test system: pigweed (Amaranthus retroflexus); test: Test A postemergence; details: Amaranthus retroflexus, post-emergence, 240 h, 0 to 100 scale, read-out: Plant response rating, Pigweed; for pest or weed control at 125 g/ha: 125 g ai/ha; for pest or weed control at 500 g/ha: 500 g ai/ha
Method in brief: as §2

[24] = test system: wheat (Triticum aestivum); test: Test A postemergence; details: Triticum aestivum, post-emergence, 240 h, 0 to 100 scale, read-out: Plant response rating, Wheat; for plant injury at 125 g/ha: 125 g ai/ha; for plant injury at 500 g/ha: 500 g ai/ha
Method in brief: as §2

SMILES: N#Cc1cccc(Oc2ncc(Br)cn2)c1Oc1ncc(Br)cn1 [Compound 1, 2,3-bis[(5-bromo-2-pyrimidinyl)oxy]benzonitrile]
- pest or weed control at 250 g/ha [1]: 90%
- pest or weed control at 250 g/ha [2]: 95%
- pest or weed control at 250 g/ha [3]: 40%
- plant injury at 250 g/ha (rice (Oryza sativa) [4]): 0%
- Plant response rating, Ducksalad ([5]; 31 g ai/ha): 0
- Plant response rating, Ducksalad ([5]; 62 g ai/ha): 0
- Plant response rating, Ducksalad ([5]; 125 g ai/ha): 50
- Plant response rating, Ducksalad ([5]; 250 g ai/ha): 80
- Plant response rating, Sedge, Umbrella ([6]; 31 g ai/ha): 0
- Plant response rating, Sedge, Umbrella ([6]; 62 g ai/ha): 30
- Plant response rating, Sedge, Umbrella ([6]; 125 g ai/ha): 65
- Plant response rating, Sedge, Umbrella ([6]; 250 g ai/ha): 80
- Plant response rating, Barnyardgrass ([7]; 31 g ai/ha): 0
- Plant response rating, Barnyardgrass ([7]; 62 g ai/ha): 0
- Plant response rating, Barnyardgrass ([7]; 125 g ai/ha): 0
- Plant response rating, Barnyardgrass ([7]; 250 g ai/ha): 0
- Plant response rating, Rice (rice (Oryza sativa) [8]; 31 g ai/ha): 0
- Plant response rating, Rice (rice (Oryza sativa) [8]; 62 g ai/ha): 0
- Plant response rating, Rice (rice (Oryza sativa) [8]; 125 g ai/ha): 0
- Plant response rating, Rice (rice (Oryza sativa) [8]; 250 g ai/ha): 0
- Plant response rating, Velvetleaf ([9]; 125 g ai/ha): 70
- Plant response rating, Velvetleaf ([9]; 500 g ai/ha): 100
- pest or weed control at 125 g/ha [10]: 90%
- pest or weed control at 500 g/ha [10]: 100%
- Plant response rating, Crabgrass, Large ([11]; 125 g ai/ha): 100
- Plant response rating, Crabgrass, Large ([11]; 500 g ai/ha): 100
- Plant response rating, Corn (corn (Zea mays) [12]; 125 g ai/ha): 20
- Plant response rating, Corn (corn (Zea mays) [12]; 500 g ai/ha): 60
- pest or weed control at 125 g/ha [13]: 70%
- pest or weed control at 500 g/ha [13]: 90%
- Plant response rating, Morningglory ([14]; 125 g ai/ha): 30
- Plant response rating, Morningglory ([14]; 500 g ai/ha): 100
- pest or weed control at 125 g/ha [15]: 100%
- pest or weed control at 500 g/ha [15]: 100%
- Plant response rating, Wheat ([16]; 125 g ai/ha): 20
- Plant response rating, Wheat ([16]; 500 g ai/ha): 60
- Plant response rating, Velvetleaf ([17]; 125 g ai/ha): 70
- Plant response rating, Velvetleaf ([17]; 500 g ai/ha): 90
- pest or weed control at 125 g/ha [18]: 70%
- pest or weed control at 500 g/ha [18]: 90%
- Plant response rating, Crabgrass, Large ([19]; 125 g ai/ha): 60
- Plant response rating, Crabgrass, Large ([19]; 500 g ai/ha): 100
- Corn plant response rating (crop injury, 0 = no effect, 100 = complete kill) at 125 g/ha (corn (Zea mays) [20]): 30%
- Corn plant response rating (crop injury, 0 = no effect, 100 = complete kill) at 500 g/ha (corn (Zea mays) [20]): 80%
- pest or weed control at 125 g/ha [21]: 70%
- pest or weed control at 500 g/ha [21]: 90%
- Plant response rating, Morningglory ([22]; 125 g ai/ha): 30
- Plant response rating, Morningglory ([22]; 500 g ai/ha): 30
- pest or weed control at 125 g/ha [23]: 100%
- pest or weed control at 500 g/ha [23]: 100%
- plant injury at 125 g/ha [24]: 30%
- plant injury at 500 g/ha [24]: 60%

SMILES: N#Cc1cccc(Oc2ncc(F)cn2)c1Oc1ncc(F)cn1 [Compound 2, 2,3-bis[(5-fluoro-2-pyrimidinyl)oxy]benzonitrile]
- pest or weed control at 250 g/ha [1]: 70%
- pest or weed control at 250 g/ha [2]: 60%
- pest or weed control at 250 g/ha [3]: 20%
- plant injury at 250 g/ha (rice (Oryza sativa) [4]): 15%
- Plant response rating, Velvetleaf ([9]; 125 g ai/ha): 40
- Plant response rating, Velvetleaf ([9]; 500 g ai/ha): 100
- pest or weed control at 125 g/ha [10]: 100%
- pest or weed control at 500 g/ha [10]: 100%
- Plant response rating, Crabgrass, Large ([11]; 125 g ai/ha): 100
- Plant response rating, Crabgrass, Large ([11]; 500 g ai/ha): 100
- Plant response rating, Corn (corn (Zea mays) [12]; 125 g ai/ha): 20
- Plant response rating, Corn (corn (Zea mays) [12]; 500 g ai/ha): 60
- pest or weed control at 125 g/ha [13]: 20%
- pest or weed control at 500 g/ha [13]: 100%
- Plant response rating, Morningglory ([14]; 125 g ai/ha): 50
- Plant response rating, Morningglory ([14]; 500 g ai/ha): 100
- pest or weed control at 125 g/ha [15]: 100%
- pest or weed control at 500 g/ha [15]: 100%
- Plant response rating, Wheat ([16]; 125 g ai/ha): 20
- Plant response rating, Wheat ([16]; 500 g ai/ha): 30
- Plant response rating, Velvetleaf ([17]; 125 g ai/ha): 70
- Plant response rating, Velvetleaf ([17]; 500 g ai/ha): 90
- pest or weed control at 125 g/ha [18]: 40%
- pest or weed control at 500 g/ha [18]: 100%
- Plant response rating, Crabgrass, Large ([19]; 125 g ai/ha): 30
- Plant response rating, Crabgrass, Large ([19]; 500 g ai/ha): 100
- Corn plant response rating (crop injury, 0 = no effect, 100 = complete kill) at 125 g/ha (corn (Zea mays) [20]): 0%
- Corn plant response rating (crop injury, 0 = no effect, 100 = complete kill) at 500 g/ha (corn (Zea mays) [20]): 90%
- pest or weed control at 125 g/ha [21]: 20%
- pest or weed control at 500 g/ha [21]: 90%
- Plant response rating, Morningglory ([22]; 125 g ai/ha): 60
- Plant response rating, Morningglory ([22]; 500 g ai/ha): 90
- pest or weed control at 125 g/ha [23]: 90%
- pest or weed control at 500 g/ha [23]: 100%
- plant injury at 125 g/ha [24]: 20%
- plant injury at 500 g/ha [24]: 90%
